# Assay results from article PMC11426312 (Biochemistry, 2024).
# Columns and labels:
# [1] = biological target: T1, AbHMPK (hydroxymethyl pyrimidine kinase / phosphomethylpyrimidine kinase) (Acinetobacter baumannii, UniProt A0A0J9X285); experiment: HPLC and LC-MS/MS of the enzymatic product; assay type: biochemical
# [2] = biological target: T1, AbHMPK (hydroxymethyl pyrimidine kinase / phosphomethylpyrimidine kinase); experiment: X-ray crystal structure; assay type: biochemical
# T1 sequence (A0A0J9X285 whole entry): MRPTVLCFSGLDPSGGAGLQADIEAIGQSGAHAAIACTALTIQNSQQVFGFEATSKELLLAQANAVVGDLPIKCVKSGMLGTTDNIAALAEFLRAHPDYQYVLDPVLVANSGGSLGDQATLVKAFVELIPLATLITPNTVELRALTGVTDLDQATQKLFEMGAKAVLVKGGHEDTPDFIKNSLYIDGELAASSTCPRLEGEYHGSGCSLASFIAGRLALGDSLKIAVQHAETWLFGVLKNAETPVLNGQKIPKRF
IC50 [2],Compound,HPLC and LC-MS/MS of the enzymatic product [1]
–,Cc1ncc(COP(=O)(O)O)c(N)n1 [HMP-P],the mass spectrometry analysis all confirm that this single product is HMP-P
768 µM,"Cc1ncc(COP(=O)(O)O)c(C=O)c1O [PLP, 4-Formyl-5-hydroxy-6-methylpyridin-3-yl) methyl dihydrogen phosphate]",–
